This is an account of results in patent publication US20260242391A1 (priority 2023, published 2026).

Molecules are shown by their SMILES.

One may read the EC50 as the concentration needed to bring the measured effect to its halfway point. In general, IC50 refers to the concentration that gives 50% inhibition.

Data set [1] concerns HL-60. Description: HL-60 differentiation potency. It is filed as cell-based. Conditions: Homo sapiens.
The nature of data set [2]: in vitro. Conditions: human.

Consider `C[C@H]1[C@@H](OC[C@]2(F)CC[C@H](C(=O)O)CC2)O[C@@H]2O[C@@]3(C)CC[C@H]4[C@H](C)CC[C@@H]1[C@@]24OO3` [Compound 140, (1S,4r)-4-fluoro-4-((((3R,5aS,6R,8aS, 9R,10S,12R, 12aR)-3,6,9-trimethyldeca-hydro-12H-3,12-epoxy[1,2]dioxepino[4,3-i]isochromen-10-yl)oxy)methyl) cyclohexane-1-carboxylic acid], for which the response in data set [1] was half-maximal at 0.314 µM (EC50). In data set [2], the IC50 was 19 µM.
Regarding `C[C@H]1[C@@H](OCc2cc(C(=O)O)cc(C(=O)O)c2)O[C@@H]2O[C@@]3(C)CC[C@H]4[C@H](C)CC[C@@H]1[C@@]24OO3` [Compound 141, 5-((((3R,5aS,6R,8aS, 9R,10S,12R, 12aR)-3,6,9-trimethyldeca-hydro-12H-3,12-epoxy[1,2]dioxepino[4,3-i]isochromen-10-yl)oxy)methyl) isophthalic acid], the 50% effective concentration (EC50) in data set [1] was greater than 20 µM. In data set [2], the IC50 was greater than 20 µM.
As for `C[C@H]1[C@@H](Oc2ccc(C(=O)NCC(=O)O)cc2)O[C@@H]2O[C@@]3(C)CC[C@H]4[C@H](C)CC[C@@H]1[C@@]24OO3` [Compound 142, (4-(((3R,5aS,6R,8aS, 9R,10S,12R, 12aR)-3,6,9-trimethyldeca-hydro-12H-3,12-epoxy[1,2]dioxepino[4,3-i]isochromen-10-yl)oxy)benzoyl) glycine], in data set [1], the EC50 worked out at 1.82 µM. This compound also displayed an IC50 in data set [2] greater than 20 µM.
For `C[C@H]1[C@@H](OC[C@H]2CC[C@@H](C(=O)NC3CC3)CC2)O[C@@H]2O[C@@]3(C)CC[C@H]4[C@H](C)CC[C@@H]1[C@@]24OO3` [Compound 143, (1R,4s)-N-cyclopropyl-4-((((3R,5aS,6R,8aS, 9R,10S,12R, 12aR)-3,6,9-trimethyldeca-hydro-12H-3,12-epoxy[1,2]dioxepino[4,3-i]isochromen-10-yl)oxy)methyl) cyclohexane-1-carboxamide] the same measures were 0.0726 µM and 1 µM.
Compound `C[C@H]1[C@@H](OC[C@H]2CC[C@@H](C(=O)O)N2C)O[C@@H]2O[C@@]3(C)CC[C@H]4[C@H](C)CC[C@@H]1[C@@]24OO3` [Compound 144, (2S,5R)-1-methyl-5-((((3R,5aS,6R,8aS, 9R,10S,12R, 12aR)-3,6,9-trimethyldeca-hydro-12H-3,12-epoxy[1,2]dioxepino[4,3-i]isochromen-10-yl)oxy)methyl) pyrrolidine-2-carboxylic acid] came in with a 50% effective concentration (EC50) in data set [1] of 3.35 µM. For the same compound, 14.4 µM corresponded to half-maximal inhibition in data set [2] (IC50).
For `C[C@H]1[C@@H](OC(=O)Cn2ccc(C(F)(F)F)n2)O[C@@H]2O[C@@]3(C)CC[C@H]4[C@H](C)CC[C@@H]1[C@@]24OO3` [Compound 145, (3R,5aS,6R,8aS, 9R,10R,12R, 12aR)-3,6,9-trimethyldeca-hydro-12H-3,12-epoxy[1,2] dioxepino[4,3-i] isochromen-10-yl 2-(3-(trifluoro-methyl)-1H-pyrazol-1-yl)acetate] the same measures were 0.0732 µM and 0.11 µM.
Compound `CC(C)C(C(=O)O)c1ccc(O[C@H]2O[C@@H]3O[C@@]4(C)CC[C@H]5[C@H](C)CC[C@@H]([C@H]2C)[C@@]35OO4)cc1` (stereo partly drawn) [Compound 146, 3-methyl-2-(4-(((3R,5aS,6R,8aS, 9R,10S,12R, 12aR)-3,6,9-trimethyldeca-hydro-12H-3,12-epoxy[1,2]dioxepino[4,3-i]isochromen-10-yl)oxy)phenyl) butanoic acid] showed an EC50 in data set [1] of 0.0596 µM. The compound also registered an IC50 in data set [2] of 0.8 µM.
For `C[C@H]1[C@@H](OC[C@H]2C[C@@H](C(=O)O)C[C@@H](C(=O)O)C2)O[C@@H]2O[C@@]3(C)CC[C@H]4[C@H](C)CC[C@@H]1[C@@]24OO3` [Compound 147, (1R,3S,5r)-5-((((3R,5aS,6R,8aS, 9R,10S,12R, 12aR)-3,6,9-trimethyldeca-hydro-12H-3,12-epoxy[1,2]dioxepino[4,3-i]isochromen-10-yl)oxy)methyl) cyclohexane-1,3-dicarboxylic acid] the same measures were greater than 20 µM and greater than 20 µM.
As to `C[C@H]1[C@@H](OCC(=O)N2CCC(C(=O)O)CC2)O[C@@H]2O[C@@]3(C)CC[C@H]4[C@H](C)CC[C@@H]1[C@@]24OO3` [Compound 148, 1-(2-(((3R,5aS,6R,8aS, 9R,10S,12R, 12aR)-3,6,9-trimethyldeca-hydro-12H-3,12-epoxy[1,2]dioxepino[4,3-i]isochromen-10-yl)oxy)acetyl) piperidine-4-carboxylic acid], the half-maximal effective concentration (EC50) in data set [1] was 6.87 µM. The IC50 in data set [2] was greater than 20 µM.
For `C[C@H]1[C@@H](Oc2ccc(C(=O)N3CC(C(=O)O)C3)cc2)O[C@@H]2O[C@@]3(C)CC[C@H]4[C@H](C)CC[C@@H]1[C@@]24OO3` [Compound 149, 1-(4-(((3R,5aS,6R,8aS, 9R,10S,12R, 12aR)-3,6,9-trimethyldeca-hydro-12H-3,12-epoxy[1,2]dioxepino[4,3-i]isochromen-10-yl)oxy)benzoyl) azetidine-3-carboxylic acid] the same measures were 1.24 µM and greater than 20 µM.
For `C[C@H]1[C@@H](OCC(=O)N2C[C@H](F)C[C@H]2C(=O)O)O[C@@H]2O[C@@]3(C)CC[C@H]4[C@H](C)CC[C@@H]1[C@@]24OO3` [Compound 150, (2S,4R)-4-fluoro-1-(2-(((3R,5aS,6R,8aS, 9R,10S,12R, 12aR)-3,6,9-trimethyldeca-hydro-12H-3,12-epoxy[1,2]dioxepino[4,3-i]isochromen-10-yl)oxy)acetyl) pyrrolidine-2-carboxylic acid] the same measures were greater than 20 µM and greater than 20 µM.
In data set [1], `C[C@H]1[C@@H](OCC(=O)N2C[C@H]3[C@@H]([C@H]2C(=O)O)C3(C)C)O[C@@H]2O[C@@]3(C)CC[C@H]4[C@H](C)CC[C@@H]1[C@@]24OO3` [Compound 151, (1R,2S,5S)-6,6-dimethyl-3-(2-(((3R,5aS,6R,8aS, 9R,10S,12R, 12aR)-3,6,9-trimethyldeca-hydro-12H-3,12-epoxy[1,2]dioxepino[4,3-i]isochromen-10-yl)oxy)acetyl)-3-azabicyclo[3.1.0] hexane-2-carboxylic acid] returned an EC50 of 1.57 µM. In data set [2], the IC50 is greater than 20 µM.
Take `C[C@H]1[C@@H](OCC(=O)N[C@H]2CC[C@@H](C(=O)O)C2)O[C@@H]2O[C@@]3(C)CC[C@H]4[C@H](C)CC[C@@H]1[C@@]24OO3` [Compound 152, (1R,3S)-3-(2-(((3R,5aS,6R, 8aS,9R,10S,12R, 12aR)-3,6,9-trimethyldeca-hydro-12H-3,12-epoxy[1,2]dioxepino[4,3-i]isochromen-10-yl)oxy)acetamido) cyclopentane-1-carboxylic acid]: a half-maximal response in data set [1] (EC50) required 8.48 µM. The half-inhibitory concentration (IC50) in data set [2] is greater than 20 µM.
In turn, `C[C@H]1[C@@H](OC[C@H]2CC[C@@H](C(=O)NC(C)(C)C)CC2)O[C@@H]2O[C@@]3(C)CC[C@H]4[C@H](C)CC[C@@H]1[C@@]24OO3` [Compound 153, (1R,4s)-N-(tert-butyl)-4-((((3R,5aS,6R,8aS, 9R,10S,12R, 12aR)-3,6,9-trimethyldeca-hydro-12H-3,12-epoxy[1,2]dioxepino[4,3-i]isochromen-10-yl)oxy)methyl) cyclohexane-1-carboxamide] had an EC50 in data set [1] of 0.0973 µM. In addition, inhibition in data set [2] was half-maximal at 0.54 µM (IC50).
For `C[C@H]1[C@@H](Oc2ccc3c(c2)OC(C(=O)O)C3)O[C@@H]2O[C@@]3(C)CC[C@H]4[C@H](C)CC[C@@H]1[C@@]24OO3` (stereo partly drawn) [Compound 154, 6-(((3R,5aS,6R,8aS, 9R,10S,12R, 12aR)-3,6,9-trimethyldeca-hydro-12H-3,12-epoxy[1,2]dioxepino[4,3-i]isochromen-10-yl)oxy)-2,3-dihydrobenzo-furan-2-carboxylic acid] the same measures were 0.0708 µM and 9 µM.
For `C[C@H]1[C@@H](OCc2ccc(C(=O)O)c(C(F)(F)F)c2)O[C@@H]2O[C@@]3(C)CC[C@H]4[C@H](C)CC[C@@H]1[C@@]24OO3` [Compound 155, 2-(trifluoromethyl)-4-((((3R,5aS,6R, 8aS,9R,10S,12R, 12aR)-3,6,9-trimethyldeca-hydro-12H-3,12-epoxy[1,2]dioxepino[4,3-i]isochromen-10-yl)oxy)methyl) benzoic acid] the same measures were 0.175 µM and greater than 20 µM.
For `C[C@H]1[C@@H](OC[C@H]2CC[C@@H](CO)CC2)O[C@@H]2O[C@@]3(C)CC[C@H]4[C@H](C)CC[C@@H]1[C@@]24OO3` [Compound 156, ((1R,4s)-4-((((3R,5aS,6R, 8aS,9R,10S,12R, 12aR)-3,6,9-trimethyldeca-hydro-12H-3,12-epoxy[1,2]dioxepino[4,3-i]isochromen-10-yl)oxy)methyl)cyclohexyl) methanol] the same measures were 0.0766 µM and 0.27 µM.
In turn, `C[C@H]1[C@@H](OC2C[C@H]3CC(C(=O)O)C[C@@H]23)O[C@@H]2O[C@@]3(C)CC[C@H]4[C@H](C)CC[C@@H]1[C@@]24OO3` (stereo partly drawn) [Compound 157, (1R,5R)-6-(((3R,5aS,6R,8aS, 9R,10S,12R, 12aR)-3,6,9-trimethyldeca-hydro-12H-3,12-epoxy[1,2]dioxepino[4,3-i]isochromen-10-yl)oxy)bicyclo [3.2.0]heptane-3-carboxylic acid] registered a 50% effective concentration (EC50) in data set [1] of 0.797 µM. Moreover, in data set [2], the IC50 is greater than 20 µM.
For `C[C@H]1[C@@H](OC2C3CC(C(=O)O)CC32)O[C@@H]2O[C@@]3(C)CC[C@H]4[C@H](C)CC[C@@H]1[C@@]24OO3` (stereo partly drawn) [Compound 158, 6-(((3R,5aS,6R,8aS, 9R,10S,12R, 12aR)-3,6,9-trimethyldeca-hydro-12H-3,12-epoxy[1,2]dioxepino[4,3-i]isochromen-10-yl)oxy)bicyclo [3.1.0]hexane-3-carboxylic acid] the same measures were 4.25 µM and greater than 20 µM.
Take `C[C@H]1[C@H](OCC(=O)N2C[C@H](F)C[C@H]2C(=O)O)O[C@@H]2O[C@@]3(C)CC[C@H]4[C@H](C)CC[C@@H]1[C@@]24OO3` [Compound 159, (2S,4R)-4-fluoro-1-(2-(((3R,5aS,6R,8aS, 9R,10R,12R, 12aR)-3,6,9-trimethyldeca-hydro-12H-3,12-epoxy[1,2]dioxepino[4,3-i]isochromen-10-yl)oxy)acetyl) pyrrolidine-2-carboxylic acid]: in data set [1], the 50% effective concentration (EC50) is greater than 20 µM. This compound also returned an IC50 in data set [2] greater than 20 µM.
